Here are results for eleven compounds from ChEMBL document CHEMBL3351874, “Rational design of inhibitors of the bacterial cell wall synthetic enzyme GlmU using virtual screening and lead-hopping” (Bioorg Med Chem, 2014).

The nature of series [1]: Inhibition of Haemophilus influenzae ATCC 51907 GlmU expressed in Escherichia coli BL21(DE3) incubated for 15 mins prior to MgCl2 addition measured after 30 mins by malachite green staining-based assay.
The target of series [2] is Bifunctional protein GlmU (Escherichia coli, UniProt C3SLB7). Briefly: Inhibition of Escherichia coli ATCC 27325 GlmU expressed in Escherichia coli HMS174(DE3) incubated for 15 mins prior to MgCl2 addition measured after 30 mins by malachite green staining-based assay.
A short description of series [3]: Serum protein binding in human at 10 uM after 30 mins by ultrafiltration method. Type of series: ADME. The note with it: read-out: PB (converted).

Chain of Bifunctional protein GlmU (C3SLB7 whole entry): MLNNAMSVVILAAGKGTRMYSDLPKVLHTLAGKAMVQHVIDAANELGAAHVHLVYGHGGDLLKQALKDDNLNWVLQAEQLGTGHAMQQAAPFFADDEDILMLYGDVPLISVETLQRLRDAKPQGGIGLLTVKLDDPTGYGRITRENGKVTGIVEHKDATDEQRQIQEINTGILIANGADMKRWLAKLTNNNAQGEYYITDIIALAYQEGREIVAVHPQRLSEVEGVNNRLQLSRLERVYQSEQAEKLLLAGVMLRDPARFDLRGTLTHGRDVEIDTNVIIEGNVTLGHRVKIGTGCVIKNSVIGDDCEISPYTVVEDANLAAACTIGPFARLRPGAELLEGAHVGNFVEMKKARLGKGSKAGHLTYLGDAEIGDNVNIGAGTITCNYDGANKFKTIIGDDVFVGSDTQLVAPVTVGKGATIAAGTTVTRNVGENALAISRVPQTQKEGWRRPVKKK

By IC50 is commonly meant the concentration that inhibits the measured activity by half. A higher IC50 goes with weaker potency in that assay. For `COc1cc2c(Nc3ccc(NC(=O)c4ccccc4)cc3)nc(NCCCn3ccnc3)nc2cc1O`, the results for the 50% inhibitory concentration (IC50) in series [1] and in series [2] were 1.12 µM and 4.5 µM, respectively. Besides, the fraction unbound at 0.5 h, 10 µM in series [3] was 0.012.

With `COc1cc2c(Nc3ccc(NC(=O)c4ccccc4)cc3)nc(-c3ccccn3)nc2cc1O`, the results for the half-inhibitory concentration (IC50) in series [1] and in series [2] were 1.5 µM and 2.7 µM, respectively. Moreover, in series [3], the fraction unbound at 0.5 h, 10 µM was below 0.01.

With `COc1cc(C(=O)Nc2ccc(NC(=O)c3ccccc3)cc2)cc(-c2c[nH]c(=O)[nH]c2=O)c1O`, the values for the IC50 in series [1] and in series [2] were 0.02 µM and 0.26 µM, respectively. For the same compound, the fraction unbound at 0.5 h, 10 µM in series [3] was 0.019.

Turning to `COc1cc(C(=O)Nc2ccc(NC(=O)c3ccccn3)cc2)cc(-c2nn[nH]n2)c1`, the IC50 was found to be 0.55 µM in series [1] and 21 µM in series [2]. Further, in series [3], the fraction unbound at 0.5 h, 10 µM was 0.032.

Regarding `COc1cc2c(Nc3ccc(NC(=O)c4ccccc4)cc3)nc(Cc3ccccc3)nc2cc1O`, the figures for the IC50 in series [1] and in series [2] were 1.8 µM and 4.8 µM, respectively. In addition, the fraction unbound at 0.5 h, 10 µM in series [3] is below 0.01.

With `COc1cc(C(=O)Nc2ccc(NC(=O)c3ccccn3)cc2)cc(-c2nc(=O)o[nH]2)c1`, the values for the IC50 in series [1] and in series [2] were 1.7 µM and above 22 µM, respectively. Further, the fraction unbound at 0.5 h, 10 µM in series [3] is 0.016.

Consider `COc1cc2c(Nc3ccc(NC(=O)c4ccccc4)cc3)nc(Cl)nc2cc1O`, for which the half-inhibitory concentration (IC50) in series [1] was 0.65 µM; in series [2] it was 0.37 µM. Also, the fraction unbound at 0.5 h, 10 µM in series [3] was 0.021.

As for `O=c1[nH]cc(-c2cccc([N+](=O)[O-])c2)c(=O)[nH]1`, the half-inhibitory concentration (IC50) in series [1] stood at 1950 µM.

For `COc1cc(C(=O)Nc2ccc(NC(=O)c3ccccn3)cc2)cc(-c2cnc(=O)[nH]c2)c1`, the IC50 in series [1] was determined as 0.98 µM; in series [2], 4.2 µM. The fraction unbound at 0.5 h, 10 µM in series [3] was below 0.01.

In series [1], `O=c1[nH]cc(-c2cccc(Br)c2)c(=O)[nH]1` registered an IC50 of 50 µM.

For the compound `COc1cc(C(=O)Nc2ccc(NC(=O)c3ccccc3)cc2)ccc1OCC(N)=O`, the IC50 in series [1] and in series [2] was above 22 µM throughout.
